Counter-ions that a name gives are not always drawn.
Test system: HCT116
Details: 72 h
In short: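 In 1536-well plates, 250 HCT116 cells per well were seeded and left for 5 h to attach. Luminescence from CellTiter-Glo was set against vehicle (0%) and positive control (-100%), and pattern correction was applied. IC50 and maximal efficacy come from four-parameter Hill fitting.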

| IC50 cell viability (ICRF193 0 nM) [µM] | IC50 cell viability (ICRF193 200 nM) [µM] | SMILES |
| --- | --- | --- |
| > 45.8 | > 45.8 | CCOC(=O)C1=C[C@@H](OC(CC)CC)[C@H](NC(C)=O)[C@@H](N)C1 [Oseltamivir Phosphate] |
| > 45.8 | > 45.8 | OCCOc1ccc(/C(=C(/CCCl)c2ccccc2)c2ccccc2)cc1 [Ospemifene] |
| > 45.8 | > 45.8 | O=C(O)c1nc(=O)[nH]c(=O)[nH]1 [Oteracil] |
| > 45.8 | > 45.8 | Cc1onc(-c2ccccc2)c1C(=O)N[C@@H]1C(=O)N2[C@@H]1SC(C)(C)[C@@H]2C(=O)O [Oxacillin sodium] |
| > 45.8 | > 45.8 | O=C(O)C(=O)O.[NH-][C@@H]1CCCC[C@H]1[NH-].[Pt+2] [Oxaliplatin] |
| > 45.8 | > 45.8 | C[N+]1(CC2COC(c3ccccc3)(C3CCCCC3)O2)CCCCC1 (centres undefined) [Oxapium iodide] |
| > 45.8 | > 45.8 | O=C(O)CCc1nc(-c2ccccc2)c(-c2ccccc2)o1 [Oxaprozin] |
| > 45.8 | > 45.8 | CCN(CC)CCOCCOC(=O)C(CC)(CC)c1ccccc1 [Oxeladin Citrate] |
| > 45.8 | > 45.8 | C=CCOc1ccccc1OCC(O)CNC(C)C (centres undefined) [Oxprenolol hydrochloride] |
| > 45.8 | > 45.8 | CCN(CC)CC#CCOC(=O)C(O)(c1ccccc1)C1CCCCC1 (centres undefined) [Oxybutynin chloride] |
| > 45.8 | > 45.8 | Cc1cc(C(C)(C)C)c(O)c(C)c1CC1=NCCN1 [Oxymetazoline hydrochloride] |
| > 45.8 | > 45.8 | COc1cc2[nH]c(C)c(CCN3CCN(c4ccccc4)CC3)c2cc1OC [Oxypertine hydrochloride] |
| > 45.8 | > 45.8 | CN1CCCN=C1COC(=O)C(O)(c1ccccc1)C1CCCCC1 (centres undefined) [Oxyphencyclimine hydrochloride] |
| > 45.8 | > 45.8 | CC[N+](C)(CC)CCOC(=O)C(O)(c1ccccc1)C1CCCCC1 (centres undefined) [Oxyphenonium bromide] |
| > 45.8 | > 45.8 | CN(C)[C@@H]1C(O)=C(C(N)=O)C(=O)[C@@]2(O)C(O)=C3C(=O)c4c(O)cccc4[C@@](C)(O)[C@H]3[C@H](O)[C@@H]12 [Oxytetracycline] |
| > 45.8 | > 45.8 | CC[C@H](C)[C@@H]1NC(=O)[C@H](Cc2ccc(O)cc2)NC(=O)[C@@H](N)CSSC[C@@H](C(=O)N2CCC[C@H]2C(=O)N[C@@H](CC(C)C)C(=O)NCC(N)=O)NC(=O)[C@H](CC(N)=O)NC(=O)[C@H](CCC(N)=O)NC1=O [Oxytocin] |
| > 45.8 | > 45.8 | O=C(O)/C=C/c1ccc(Cn2ccnc2)cc1 [Ozagrel hydrochloride] |
| > 45.8 | > 45.8 | Cc1cc(O)ccc1C(C)(C)C [P-T-BUTYL-M-CRESOL] |
| > 45.8 | > 45.8 | CCC1(C)OC(=O)N(C)C1=O (centres undefined) [PARAMETHADIONE] |
| > 45.8 | > 45.8 | NC[C@@H]1O[C@H](O[C@H]2[C@@H](O)[C@H](O[C@@H]3[C@@H](O)[C@H](N)C[C@H](N)[C@H]3O[C@H]3O[C@H](CO)[C@@H](O)[C@H](O)[C@H]3N)O[C@@H]2CO)[C@H](N)[C@@H](O)[C@@H]1O [PAROMOMYCIN SULFATE] |
| > 45.8 | > 45.8 | CC1(C)S[C@@H]2[C@H](NC(=O)COc3ccccc3)C(=O)N2[C@H]1C(=O)O [PENICILLIN V POTASSIUM] |
| > 45.8 | > 45.8 | N#Cc1ccc2c(c1)N(CCCN1CCC(O)CC1)c1ccccc1S2 [PERICIAZINE] |
| > 45.8 | > 45.8 | CC(N/C(=N\C#N)Nc1ccncc1)C(C)(C)C (centres undefined) [PINACIDIL] |
| > 45.8 | > 45.8 | C[C@]12C=CC(=O)C=C1CC[C@@H]1[C@@H]2[C@@H](O)C[C@@]2(C)[C@H]1CC[C@]2(O)C(=O)COC(=O)CCC(=O)O [PREDNISOLONE HEMISUCCINATE] |
| > 45.8 | > 45.8 | CCCCC(=O)O[C@]1(C(=O)COC(C)=O)CC[C@H]2[C@@H]3CCC4=CC(=O)C=C[C@]4(C)[C@H]3[C@@H](O)C[C@@]21C [PREDNISOLONE VALERATE ACETATE] |

| IC50 cell viability (ICRF193 0 nM) [µM] | IC50 cell viability (ICRF193 200 nM) [µM] | SMILES |
| --- | --- | --- |
| > 45.8 | > 45.8 | CCCOc1cc(N)ccc1C(=O)OCCN(CC)CC [PROPOXYCAINE HYDROCHLORIDE] |
| > 45.8 | > 45.8 | CC(C)OC(=O)[C@H](C)N[P@@](=O)(OC[C@H]1O[C@@H](n2ccc(=O)[nH]c2=O)[C@](C)(F)[C@@H]1O)Oc1ccccc1 [PSI-7976] |
| > 45.8 | > 45.8 | CCCCCCCCCCCCCCCC(=O)OC1CCCn2c1nc(C)c(CCN1CCC(c3noc4cc(F)ccc34)CC1)c2=O (centres undefined) [Paliperidone Palmitate] |
| > 45.8 | > 45.8 | Cc1nc2n(c(=O)c1CCN1CCC(c3noc4cc(F)ccc34)CC1)CCCC2O (centres undefined) [Paliperidone] |
| > 45.8 | > 45.8 | O=C1c2cccc3c2[C@H](CCC3)CN1[C@@H]1CN2CCC1CC2 [Palonosetron hydrochloride] |
| > 45.8 | > 45.8 | NCCC(O)(P(=O)(O)O)P(=O)(O)O [Pamidronic acid] |
| > 45.8 | > 45.8 | O=C(O)c1cc2ccccc2c(Cc2c([O-])c(C(=O)O)cc3ccccc23)c1[O-].[Na+].[Na+] [Pamoic acid disodium salt] |
| > 45.8 | > 45.8 | COc1ccnc(C[S+]([O-])c2nc3cc(OC(F)F)ccc3[nH]2)c1OC (centres undefined) [Pantoprazole] |
| > 45.8 | > 45.8 | CC(C)(CO)[C@@H](O)C(=O)NCCC(=O)O [Pantothenic acid] |
| > 45.8 | > 45.8 | CC(=O)OCC(=O)[C@@]1(O)[C@H](C)C[C@H]2[C@@H]3C[C@H](F)C4=CC(=O)C=C[C@]4(C)[C@H]3[C@@H](O)C[C@@]21C [Paramethasone acetate] |
| > 45.8 | > 45.8 | CCC(=O)NS(=O)(=O)c1ccc(-c2c(-c3ccccc3)noc2C)cc1 [Parecoxib] |
| > 45.8 | > 45.8 | CCOc1ccc(C(=O)OCCN(CC)CC)cc1 [Parethoxycaine] |
| > 45.8 | > 45.8 | C#CCN(C)Cc1ccccc1 [Pargyline hydrochloride] |
| > 45.8 | > 45.8 | C[C@H](/C=C/[C@H](C)C(C)(C)O)[C@H]1CC[C@H]2/C(=C/C=C3C[C@@H](O)C[C@H](O)C3)CCC[C@]12C [Paricalcitol-D6] |
| > 45.8 | > 45.8 | Fc1ccc([C@@H]2CCNC[C@H]2COc2ccc3c(c2)OCO3)cc1 [Paroxetine] |
| > 45.8 | > 45.8 | CCC(=O)c1ccc(O)cc1 [Paroxypropione] |
| > 45.8 | > 45.8 | NCCCC[C@@H]1NC(=O)[C@@H](Cc2c[nH]c3ccccc23)NC(=O)[C@H](c2ccccc2)NC(=O)[C@@H]2C[C@@H](OC(=O)NCCN)CN2C(=O)[C@H](Cc2ccccc2)NC(=O)[C@H](Cc2ccc(OCc3ccccc3)cc2)NC1=O [Pasireotide (ditrifluoroacetate)] |
| > 45.8 | > 45.8 | C[C@H]1COc2c(C3(N)CC3)c(F)cc3c(=O)c(C(=O)O)cn1c23 [Pazufloxacin] |
| > 45.8 | > 45.8 | CC(C(=O)O)c1ccc(/C=C2\CCCCC2=O)cc1 (centres undefined) [Pelubiprofen] |
| > 45.8 | > 45.8 | Nc1nc2[nH]cc(CCc3ccc(C(=O)N[C@@H](CCC(=O)O)C(=O)O)cc3)c2c(=O)[nH]1 [Pemetrexed disodium heptahydrate] |
| > 45.8 | > 45.8 | Cc1cccn2c(=O)c(-c3nnn[nH]3)cnc12 [Pemirolast potassium] |
| > 45.8 | > 45.8 | Nc1nc(O)c2ncn(CCC(CO)CO)c2n1 [Penciclovir] |
| > 45.8 | > 45.8 | CCCCCC1Nc2cc(C(F)(F)F)c(S(N)(=O)=O)cc2S(=O)(=O)N1 (centres undefined) [Penflutizide] |
| > 45.8 | > 45.8 | CC1(C)S[C@@H]2[C@H](NC(=O)Cc3ccccc3)C(=O)N2[C@H]1C(=O)O [Penicillin G Sodium] |

| SMILES | IC50 cell viability (ICRF193 0 nM) [µM] | IC50 cell viability (ICRF193 200 nM) [µM] |
| --- | --- | --- |
| C[C@]12CC[C@H]3[C@@H](CCC4=C(O)C(=O)CC[C@@H]43)[C@@H]1CC[C@@H]2OC(=O)CCC1CCCC1 [Oxabolone cipioncate] | > 45.8 | > 45.8 |
| CC[C@H]1C[C@H]2[C@@H]3CCC4=CC(=O)CC[C@@H]4[C@H]3CC[C@]2(C)[C@H]1O [Oxendolone] | > 45.8 | > 45.8 |
| CC[N+]1(C)[C@@H]2CC(OC(=O)[C@H](CO)c3ccccc3)C[C@H]1[C@@H]1O[C@@H]12 (some centres undefined) [Oxitropium Bromide] | > 45.8 | > 45.8 |
| CC1(C)C(C=C(Cl)Cl)C1C(=O)OCc1cccc(Oc2ccccc2)c1 (centres undefined) [PERMETHRIN] | > 45.8 | > 45.8 |
| CN1CCC2=C(C1)C(c1ccccc1)c1ccccc12 (centres undefined) [PHENINDAMINE] | > 45.8 | > 45.8 |
| CC(C)(O)[C@@H]1[C@H]2OC(=O)[C@@H]1[C@]1(O)C[C@H]3O[C@]34C(=O)O[C@H]2[C@]14C [PICROTIN] | > 45.8 | > 45.8 |
| C=C/C=C\CC1=C(C)[C@@H](OC(=O)[C@@H]2[C@@H](/C=C(\C)C(=O)OC)C2(C)C)CC1=O [PYRETHRIN II] | > 45.8 | > 45.8 |
| CC(=O)O[C@H]1C[C@@H]2CC[C@@H]3[C@H](CC[C@@]4(C)[C@H]3C[C@H]([N+]3(C)CCCCC3)[C@@H]4OC(C)=O)[C@@]2(C)C[C@@H]1[N+]1(C)CCCCC1 [Pancuronium bromide] | > 45.8 | > 45.8 |
